Laboratory results reported in patent US10154992B2, “Compounds and methods for treating HIV infection” (THE REGENTS OF THE UNIVERSITY OF CALIFORNIA, priority 2016, dated 2018).
Like-named read-outs stand apart in the source and are kept apart here.

Tests used:
Format in all cases: cell-based
[1] = MTT cell viability run in parallel with the Tat-hybrid assay; conditions: human, Tat-hybrid reporter cell lines (HeLa); Table 5; read-out: Tat hybrid TC50
Method: (§1) Cells were counted and plated into white 384-well or 96-well cell-culture treated assay plates and compounds were added. After 48 hours, the cells were prepared for luminescence assays that were performed on a plate reader (Tecan Evolution or MD Analyst). The cytotoxicity of each compound was determined in parallel via MTT-based cell viability assays.
(§2) Tat hybrid reporter assay. […] Previously characterized thienopyridines and diaminoacridine were used as controls. Cells were counted and plated into white 384-well cell-culture treated assay plates and compounds were added. After 48 hours, the cells were prepared for lumincescence assays that were performed on a plate reader (Tecan Evolution or MD Analyst). The cytotoxicity of each compound was determined in parallel via MTT-based cell viability assays. […]

[2] = system: HIV-1 provirus in U1 cells; test: U1 activation (latency) assay, p24 ELISA
Method: (§3) U1 activation assay. U1 cells obtained from the AIDS Research and Reference Reagent Program were maintained under standard culture conditions in RPMI 1640 supplemented with 10% fetal bovine serum (heat inactivated), 2 mM L-glutamine, 100U/mL penicillin and 100 μg/mL streptomycin. U1 cells contain an integrated copy of a phorbol ester inducible HIV-1 provirus and addition of phytohemagglutinin (PHA) to the cell culture was used to induce virus production. On the day of the assay, the U1 cells were activated with PHA and 250,000 cells were plated in 96-well plates. Test compounds were diluted in media and applied to the cells at final concentrations from 1 to 10,000 nM. Cultures were incubated for 3 days and supernatants harvested. Cell-free virus production was measured by p24 ELISA on culture supernatant. Compound toxicity was determined by MTT cell-viability assay in parallel assays.

[3] = MTT cell viability in parallel with the U1 assay; conditions: human, U1 cells, read-out: U1 TC50
Method: as §3

[4] = system: Tat-hybrid reporter cell lines (HeLa); test: MTT cell viability run in parallel with the Tat-hybrid assay; conditions: Table 6; at 50,000 nM
Method: as §1, §2

[5] = Human immunodeficiency virus 1, Table 5, read-out: U1 IC50
[6] = Human immunodeficiency virus 1, Table 2, read-out: U1 cell IC50

Compound | CC50 at 48 h [1] [µM] | IC50 [2, 5] [nM] | CC50 at 3 days ([3]; Table 5) [µM] | also measured
CCOc1ccc(-c2cncc3sc(C(N)=O)cc23)cc1 | < 40 | < 100 | < 40 | –
NC(=O)c1cc2c(-c3ccc4c(c3)OCCO4)cncc2s1 | < 40 | < 100 | < 40 | –
NC(=O)c1sc2cncc(N3CCc4ccccc4C3)c2c1N | < 40 | < 100 | < 40 | –
NC(=O)c1sc2cncc(-c3cccc4ccccc34)c2c1N | > 40 | < 100 | < 40 | –
COc1cc2c(cc1OC)CN(c1cncc3sc(C(N)=O)c(N)c13)CC2 | < 40 | < 100 | < 40 | –
NC(=O)c1sc2cncc(N3CCc4sccc4C3)c2c1N | > 40 | < 100 | < 40 | –
CN(C)c1ccc(-c2cncc3sc(C(N)=O)c(N)c23)cc1 | < 40 | < 100 | > 40 | –
NC(=O)c1cc2c(-c3ccc(Oc4ccccc4)cc3)cncc2s1 | < 40 | 100 to 500 | – | –
NC(=O)c1cc2c(N3CCCCC3)cncc2s1 | > 40 | 100 to 500 | < 40 | –
NC(=O)c1cc2c(-c3cc4ccccc4o3)cncc2s1 | > 40 | > 500 | < 40 | –
CNC(=O)c1ccc(-c2cncc3sc(C(N)=O)c(N)c23)cc1 | < 40 | < 100 | > 40 | –
CN(C)C(=O)c1ccc(-c2cncc3sc(C(N)=O)c(N)c23)cc1 | < 40 | 100 to 500 | > 40 | –
NC(=O)c1sc2cncc(-c3ccoc3)c2c1N | > 40 | 100 to 500 | < 40 | –
NC(=O)c1cc2c(-c3ccccc3OC(F)(F)F)cncc2s1 | > 40 | > 500 | < 40 | –
NC(=O)c1sc2cncc(-c3ccc4cc[nH]c4c3)c2c1N | > 40 | 100 to 500 | > 40 | –
NC(=O)c1sc2cncc(-c3ccc4c(c3)OCCO4)c2c1N | < 40 | 100 to 500 | > 40 | –
NC(=O)c1cc2c(N3CCOCC3)cncc2s1 | > 40 | 100 to 500 | < 40 | –
COc1ccccc1-c1cncc2sc(C(N)=O)c(N)c12 | > 40 | 100 to 500 | > 40 | –
COc1ncc(-c2cncc3sc(C(N)=O)cc23)c(OC)n1 | > 40 | > 500 | > 40 | –
CCOc1ncccc1-c1cncc2sc(C(N)=O)c(N)c12 | > 40 | 100 to 500 | > 40 | –
NC(=O)c1sc2cncc(N3CCN(C=O)CC3)c2c1N | < 40 | > 500 | > 40 | –
CN(C)c1cncc2sc(C(N)=O)c(N)c12 | < 40 | 100 to 500 | > 40 | –
CN(C)c1cccc(-c2cncc3sc(C(N)=O)c(N)c23)c1 | < 40 | 100 to 500 | > 40 | –
NC(=O)c1sc2cncc(N3CCCC(COc4ccccc4F)C3)c2c1N (stereo not shown) | < 40 | > 500 | < 40 | –

Compound | CC50 at 48 h [1] [µM] | IC50 [2, 5] [nM] | CC50 at 3 days ([3]; Table 5) [µM] | also measured
NC(=O)c1sc2cncc(N3CCCC3)c2c1N | – | 100 to 500 | > 40 | –
NC(=O)c1sc2cncc(-c3ccccc3)c2c1N | – | 100 to 500 | > 40 | –
Cc1ccc(-c2c3c(nc4sc(C(N)=O)c(N)c24)CCC3)cc1 | – | – | – | Tat hybrid cell viability at 50,000 nM [4]: X (X = >60%); IC50 ([2]; Human immunodeficiency virus 1, Table 6, read-out: U1 IC50): > 500 nM; CC50 at 3 days ([3]; Table 6): < 40 µM
Cc1noc(C2CCCN(c3cncc4sc(C(N)=O)c(N)c34)C2)n1 (stereo not shown) [Compound 2k, 3-amino-4-[3-(3-methyl-1,2,4-oxadiazol-5-yl)piperidin-1-yl]thieno[2,3-c]pyridine-2-carboxamide] | – | – | – | IC50 ([2]; Human immunodeficiency virus 1, read-out: U1 cell IC50 (nM)): > 500 nM
COc1ccc(-c2cncc3sc(C(N)=O)c(N)c23)cc1 [Compound 3a, 3-amino-4-(4-methoxyphenyl)thieno[2,3-c]pyridine-2-carboxamide] | – | – | – | IC50 [2, 6]: < 100 nM
NC(=O)c1sc2cncc(-c3ccc4c(c3)CCO4)c2c1N [Compound 3e, 3-amino-4-(2,3-dihydro-1-benzofuran-5-yl)thieno[2,3-c]pyridine-2-carboxamide] | – | – | – | IC50 [2, 6]: < 100 nM
NC(=O)c1sc2cncc(-c3ccc4c(c3)OCO4)c2c1N [Compound 3f, 3-amino-4-(2H-1,3-benzodioxol-5-yl)thieno[2,3-c]pyridine-2-carboxamide] | – | – | – | IC50 [2, 6]: 100 to 500 nM
N#Cc1ccc(-c2cncc3sc(C(N)=O)cc23)cc1F [Compound 4c, 4-(4-cyano-3-fluorophenyl)thieno[2,3-c]pyridine-2-carboxamide] | – | – | – | IC50 [2, 6]: 100 to 500 nM
N#Cc1ccccc1-c1cncc2sc(C(N)=O)cc12 [Compound 4d, 4-(2-cyanophenyl)thieno[2,3-c]pyridine-2-carboxamide] | – | – | – | IC50 [2, 6]: > 500 nM
NC(=O)c1cc2c(-c3ccc4c(c3)OCO4)cncc2s1 [Compound 4f, 4-(2H-1,3-benzodioxol-5-yl)thieno[2,3-c]pyridine-2-carboxamide] | – | – | – | IC50 [2, 6]: < 100 nM
NC(=O)c1cc2c(-c3cccc(-c4ccccc4)c3)cncc2s1 [Compound 4j, 4-(3-phenylphenyl)thieno[2,3-c]pyridine-2-carboxamide] | – | – | – | IC50 [2, 6]: 100 to 500 nM
COc1ccc(-c2cncc3sc(C(N)=O)c(N)c23)cc1 [drawing 136] | < 40 | < 100 | > 40 | –
NC(=O)c1cc2c(-c3ccc4c(c3)OCO4)cncc2s1 [drawing 137] | < 40 | < 100 | < 40 | –
NC(=O)c1sc2cncc(N3CCC(Oc4ccccc4)CC3)c2c1N [drawing 139] | > 40 | < 100 | < 40 | –
N#Cc1ccc(-c2cncc3sc(C(N)=O)cc23)cc1F [drawing 143] | > 40 | 100 to 500 | – | –
NC(=O)c1cc2c(-c3cccc(-c4ccccc4)c3)cncc2s1 [drawing 145] | > 40 | 100 to 500 | < 40 | –
NC(=O)c1sc2cncc(-c3ccc4c(c3)CCO4)c2c1N [drawing 151] | < 40 | < 100 | > 40 | –
CN(C)c1ccnc2sc(C(N)=O)c(N)c12 [drawing 152] | > 40 | > 500 | > 40 | –
NC(=O)c1sc2cncc(-c3ccc4c(c3)OCO4)c2c1N [drawing 157] | < 40 | 100 to 500 | > 40 | –
NC(=O)c1sc2cncc(N3CCC(C(N)=O)CC3)c2c1N [drawing 158] | < 40 | 100 to 500 | > 40 | –
NC(=O)c1sc2cncc(N3CCC(F)(F)CC3)c2c1N [drawing 159] | < 40 | 100 to 500 | > 40 | –
NC(=O)c1sc2cncc(N3CCC4(CC3)OCCO4)c2c1N [drawing 161] | < 40 | 100 to 500 | > 40 | –
N#Cc1ccccc1-c1cncc2sc(C(N)=O)cc12 [drawing 164] | > 40 | > 500 | > 40 | –
